Experimental findings from ChEMBL document CHEMBL5113479, “Pyrido[2,3-d]pyrimidine-2,4(1H,3H)-dione derivatives as RAF-MEK-ERK pathway signaling pathway blockers: Synthesis, cytotoxic activity, mechanistic investigation and structure-activity relationships” (Eur J Med Chem, 2022) are described below.

Active and inactive are the calls of the source. The calls are words filed in the database; no cut-off is given here. Where only a bound is given, the exact number is not on record here.

The subject of series [1] is SK-HEP1. The series can be described thus: Induction of cell cycle arrest in human SK-HEP1 cells assessed as accumulation of cells at G0/G1 phase at 5 uM measured after 24 hrs by propidium iodide staining based flow cytometric analysis (reference value: 48.40 %). The series is classed as functional.
The subject of series [2] is SK-HEP1. Put plainly: Antiproliferative activity against human SK-HEP1 cells cultured as 3D spheroids assessed as appearance of crumbled spheroids at 10 uM measured after 120 hrs by fluorescence microscopic analysis. In kind it is functional, cell-based.
The target in series [3] is T1, Mitogen-activated protein kinase; ERK1/ERK2 (Homo sapiens) (UniProt P27361+P28482). Put plainly: Inhibition of intracellular ERK1/2 phosphorylation in human A-375 cells at 5 uM by Western blot analysis. In kind it is cell-based.
Series [4] can be described thus: Cytotoxicity against human C-28/I2 cells measured after 72 hrs by CCK8 assay. In kind it is toxicity, cell-based.
In series [5] the test system is SK-HEP1. Put plainly: Induction of ROS production in human SK-HEP1 cells at 1 to 2 uM measured after 24 hrs by DCFH-DA staining based confocal microscopic and flow cytometry analysis. In kind it is functional, cell-based. Conditions: dose 1-2 µM.
Series [6] deals with SK-HEP1. Put plainly: Induction of cell cycle arrest in human SK-HEP1 cells assessed as accumulation of cells at G2/M phase at 5 uM measured after 24 hrs by propidium iodide staining based flow cytometric analysis (reference value: 18.32 %). The series is classed as functional.
Series [7] has as its system SK-HEP1. Put plainly: Induction of cell cycle arrest in human SK-HEP1 cells assessed as accumulation of cells at S phase at 5 uM measured after 24 hrs by propidium iodide staining based flow cytometric analysis (reference value: 33.08 %). The series is classed as functional.
Series [8] concerns SK-HEP1. Put plainly: Induction of apoptosis in human SK-HEP1 cells assessed as downregulation of B-Raf protein expression by Western blot analysis. Conditions: dose 1-5 µM, DDE = dose-dependent effect. The series is classed as functional, cell-based.
Series [9] has as its system SK-HEP1. The series can be described thus: Inhibition of colony formation in human SK-HEP1 cells assessed as reduction in number of colonies at 2 uM measured after 7 days by crystal violet staining based assay. In kind it is functional. As to conditions: SK-HEP1, 168 h, time 7 day.
Series [10] deals with MCF7. The series can be described thus: Antiproliferative activity against human MCF7 cells assessed as inhibition of cell growth measured after 72 hrs by CCK8 assay. The series is classed as functional, cell-based. Conditions: MCF7, 72 h.
The subject of series [11] is A-375. The series can be described thus: Antiproliferative activity against human A-375 cells assessed as inhibition of cell growth measured after 72 hrs by CCK8 assay. In kind it is functional, cell-based. Conditions: A-375, 72 h.
Series [12] deals with SK-HEP1. The series can be described thus: Inhibition of MEK1/2 phosphorylation in human SK-HEP1 cells by Western blot analysis. In kind it is cell-based. Conditions: dose 1-5 µM, DDE = dose-dependent effect.
The test system of series [13] is SK-HEP1. Put plainly: Inhibition of colony formation in human SK-HEP1 cells assessed as reduction in number of colonies at 0.2 uM measured after 7 days by crystal violet staining based assay. In kind it is functional, cell-based. As to conditions: time 7.0 day.
The subject of series [14] is SK-HEP1. The series can be described thus: Induction of apoptosis in human SK-HEP1 cells assessed as late apoptotic cells at 1.25 to 5 uM measured after 48 hrs by AnnexinV-FITC/propidium iodide staining based flow cytometry analysis (reference value: 0.36 %). In kind it is functional. Conditions: dose 1.25-5 µM.
The subject of series [15] is SK-HEP1. Put plainly: Inhibition of cell migration in human SK-HEP1 cells at 2.5 uM measured after 12 to 24 hrs by inverted microscopy based wound healing assay. In kind it is functional. As to conditions: time 12-24 hrs.
Series [16] addresses T1, Mitogen-activated protein kinase; ERK1/ERK2 (Homo sapiens). Put plainly: Inhibition of intracellular ERK1/2 phosphorylation in human SK-HEP1 cells at 5 uM by Western blot analysis. In kind it is cell-based.
For series [17], the system named is SK-HEP1. The series can be described thus: Induction of cell cycle arrest in human SK-HEP1 cells assessed as accumulation of cells at G2/M phase at 1.25 uM measured after 24 hrs by propidium iodide staining based flow cytometric analysis (reference value: 18.32 %). In kind it is functional.
The test system of series [18] is SK-HEP1. The series can be described thus: Induction of apoptosis in human SK-HEP1 cells assessed as downregulation of ERK1 expression at 2.5 uM measured after 48 hrs by fluorescent quantitative PCR analysis relative to control. The series is classed as functional.
For series [19], the system named is SK-HEP1. Put plainly: Antiproliferative activity against human SK-HEP1 cells assessed as inhibition of cell growth measured after 72 hrs by CCK8 assay. In kind it is functional, cell-based. Conditions: SK-HEP1, 72 h.
In series [20] the test system is SK-HEP1. The series can be described thus: Induction of cell cycle arrest in human SK-HEP1 cells assessed as accumulation of cells at G0/G1 phase at 1.25 uM measured after 24 hrs by propidium iodide staining based flow cytometric analysis (reference value: 48.40 %). The series is classed as functional.
For series [21], the system named is SK-HEP1. The series can be described thus: Induction of cell cycle arrest in human SK-HEP1 cells assessed as accumulation of cells at G2/M phase at 2.5 uM measured after 24 hrs by propidium iodide staining based flow cytometric analysis (reference value: 18.32 %). The series is classed as functional.
Series [22] deals with SK-HEP1. Put plainly: Induction of cell cycle arrest in human SK-HEP1 cells assessed as accumulation of cells at S phase at 2.5 uM measured after 24 hrs by propidium iodide staining based flow cytometric analysis (reference value: 33.08 %). In kind it is functional.
For series [23], the system named is SK-HEP1. Put plainly: Induction of apoptosis in human SK-HEP1 cells assessed as downregulation of ERK2 expression at 2.5 uM measured after 48 hrs by fluorescent quantitative PCR analysis relative to control. In kind it is functional.
Series [24] deals with A-375. Put plainly: Induction of apoptosis in human A-375 cells assessed as late apoptotic cells at 1.25 to 5 uM measured after 48 hrs by AnnexinV-FITC/propidium iodide staining based flow cytometry analysis (reference value: 1.61 %). In kind it is functional. As to conditions: dose 1.25-5 µM.
Series [25] relates to SK-HEP1. The series can be described thus: Antiproliferative activity against human SK-HEP1 cells cultured as 3D spheroids assessed as appearance of collapsed spheroids at 10 uM measured after 96 hrs by fluorescence microscopic analysis. The series is classed as functional, cell-based.
The subject of series [26] is SK-HEP1. The series can be described thus: Induction of cell cycle arrest in human SK-HEP1 cells assessed as accumulation of cells at S phase at 1.25 uM measured after 24 hrs by propidium iodide staining based flow cytometric analysis (reference value: 33.08 %). In kind it is functional.
For series [27], the system named is SK-HEP1. The series can be described thus: Induction of apoptosis in human SK-HEP1 cells assessed as upregulation of activated caspase-3 protein expression at 1 to 2 uM by Western blot analysis. In kind it is functional, cell-based. Conditions: dose 1-2 µM.
In series [28] the test system is SK-HEP1. Put plainly: Antiproliferative activity against human SK-HEP1 cells cultured as 3D spheroids assessed as appearance of flattened spheroids at 10 uM measured after 48 hrs by fluorescence microscopic analysis. The series is classed as functional, cell-based.
The target in series [29] is T1, Mitogen-activated protein kinase; ERK1/ERK2 (Homo sapiens). Put plainly: Inhibition of ERK1/2 phosphorylation in human SK-HEP1 cells by Western blot analysis. In kind it is cell-based. As to conditions: dose 1-5 µM, DDE = dose-dependent effect.
Series [30] has as its system SK-HEP1. Put plainly: Induction of apoptosis in human SK-HEP1 cells assessed as upregulation of activated caspase-9 protein expression at 1 to 2 uM by Western blot analysis. Conditions: dose 1-2 µM. The series is classed as functional, cell-based.
Series [31] deals with SK-MEL-2. Put plainly: Antiproliferative activity against human SK-MEL-2 cells assessed as inhibition of cell growth measured after 72 hrs by CCK8 assay. In kind it is functional, cell-based. Conditions: SK-MEL-2, 72 h.
The test system of series [32] is SK-HEP1. Put plainly: Induction of cell cycle arrest in human SK-HEP1 cells assessed as accumulation of cells at G0/G1 phase at 2.5 uM measured after 24 hrs by propidium iodide staining based flow cytometric analysis (reference value: 48.40 %). In kind it is functional.
Series [33] relates to SK-HEP1. The series can be described thus: Induction of apoptosis in human SK-HEP1 cells assessed as downregulation of ERK1/2 protein expression by Western blot analysis. The series is classed as functional, cell-based. As to conditions: dose 1-5 µM, DDE = dose-dependent effect.
For series [34], the system named is A-375. Put plainly: Cytotoxicity against human A-375 cells assessed as inhibition of cell growth. In kind it is functional, cell-based.
Series [35] in a line: Cytotoxicity against human C-28/I2 cells. In kind it is toxicity, cell-based.
In series [36] the test system is SK-MEL-2. The series can be described thus: Antiproliferative activity against human SK-MEL-2 cells assessed as inhibition of cell growth. In kind it is functional, cell-based.

T1 sequence (P27361 whole entry, looked up): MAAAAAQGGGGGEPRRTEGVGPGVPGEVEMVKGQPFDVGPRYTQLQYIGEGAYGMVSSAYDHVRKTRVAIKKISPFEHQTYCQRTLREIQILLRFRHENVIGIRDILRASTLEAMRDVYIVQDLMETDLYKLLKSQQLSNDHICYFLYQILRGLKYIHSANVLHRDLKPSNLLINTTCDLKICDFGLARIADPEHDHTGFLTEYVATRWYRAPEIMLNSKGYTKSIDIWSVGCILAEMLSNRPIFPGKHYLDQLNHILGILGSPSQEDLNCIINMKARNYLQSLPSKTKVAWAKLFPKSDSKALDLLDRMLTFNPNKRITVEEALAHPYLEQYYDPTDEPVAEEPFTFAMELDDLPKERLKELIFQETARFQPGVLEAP
T1 sequence (P28482 whole entry, looked up): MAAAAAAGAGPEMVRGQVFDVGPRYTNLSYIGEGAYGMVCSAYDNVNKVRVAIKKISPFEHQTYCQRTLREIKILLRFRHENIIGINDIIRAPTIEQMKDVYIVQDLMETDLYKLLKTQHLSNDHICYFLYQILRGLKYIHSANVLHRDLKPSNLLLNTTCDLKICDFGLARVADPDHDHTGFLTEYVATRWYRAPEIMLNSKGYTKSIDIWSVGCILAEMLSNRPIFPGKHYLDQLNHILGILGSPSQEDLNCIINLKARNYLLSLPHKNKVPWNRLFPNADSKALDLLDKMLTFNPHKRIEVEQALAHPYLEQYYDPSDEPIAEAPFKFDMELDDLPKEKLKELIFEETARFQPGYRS

In the case of `CN1CCN(c2cc(NCC(=O)Nc3cccc(Cl)c3)c3c(=O)n(C)c(=O)n(C)c3n2)CC1`, the Activity in series [1] is 44.85%; in [6] it was 23.92%; in series [7], 31.23%; in series [8] it was “Dde”; in [14] it was 42.4%; in series [17] it was 21.31%. Further, the Activity in [18] is 70%; in [20] it was 44.1%; in [21] it was 19.98%; in series [22], 34.93%; in [23], 60%; in series [24] it was 32.6%. For the same compound, the results for the Activity in [26], in series [32] and in series [33] were 34.59%, 45.09% and “Dde”, respectively. For the same compound, the result in [2], in [5], in series [25], in series [27], in series [28] and in [30] was Active. For the same compound, the inhibition entry in [3], in [13], in [15] and in [16] was “Active” in each case. In addition, the 50% cytotoxic concentration (CC50) at 72 h in [4] is greater than 50 µM. For the same compound, the inhibition at 2 µM in [9] turned out to be 100%. In addition, the half-inhibitory concentration (IC50) in [10] came out at 3.15 µM; in series [11] it was 5.2 µM; in series [19], 2.04 µM; in series [31] it was 4.79 µM. In addition, the inhibition entry in series [12] and in series [29] was “Dde” in each case.
For the compound `O=c1[nH]c2c(c(O)c1Cc1ccccc1)c(=O)n(-c1ccc(OC(F)(F)F)cc1)c(=O)n2-c1ccc(OC(F)(F)F)cc1`, the half-maximal inhibitory concentration (IC50) in [10] came out at 9.98 µM; in series [11], 24.5 µM; in series [34] it was 12.8 µM; in series [36] it was 13.7 µM. Also, in series [35], half-maximal cytotoxicity (CC50) was put at 35.9 µM.
